# According to patent publication US20220370636A1, “NICOTINAMIDE ADENINE DINUCLEOTIDE ACTIVATOR AND USE THEREOF” (University of South Florida, priority 2021, published 2022):
# How the values were obtained:
# db/db mice [1] = assay: LC-MS/MS lipidomics of gastrocnemius muscle in db/db mice; format: in vivo
# Description: Lipidomics. The lipidomic profiling of GAS muscle was performed using a liquid chromatography-tandem mass spectrometry (LC-MS/MS) method as described previously. Briefly, the GAS muscle samples were collected, and flash frozen in liquid nitrogen. Around 50-100 mg of the muscle tissue was homogenized using a bead-beating method, then the obtained supernatant was further cleaned and concentrated by solid phase extraction. The extracted LMs samples were dried under vacuum and stored at […] for future LC-MS/MS analysis. The dried extracts were reconstituted with 50 μL of methanol, and 10 μL was injected into LC-MS/MS to observe lipid profiles in GAS muscles. The LC-MS/MS system components were from Shimadzu Scientific Instruments Inc. (Columbia, Md., USA). All analyses and data processing were completed with the use of Shimadzu Lab Solutions V5.91 software (Shimadzu Scientific, Tokyo, Japan).
# db/db mice [2] = assay: Serum HDL and LDL/VLDL in db/db mice; format: in vivo; conditions: vs db-Veh
# Source text: Fasting blood glucose and serum lipid.
# C57Bl/6J wildtype hearts = assay: Ex vivo ischemia reperfusion, post-ischemia exposure in wildtype hearts; parameters: species or system mice
# Description: Hearts undergoing ex vivo ischemia reperfusion protocol post-exposure with P7C3 (3 μM) were performed as defined above. Hearts were stabilized for 30 min before proceeding to the ischemic phase. Cardiac ischemia was induced by the pause in Krebs-Hanseleit buffer perfusion for 45 min. Reperfusion was induced with the induction of Krebs-Hanseleit buffer at a constant flow of ˜2.2 ml/min for 1 hour. Hearts that underwent P7C3 (3 μM) treatment received 1-hour reperfusion with P7C3 (3 μM) within the Krebs-Hanseleit buffer.
# db/db mice [3] = assay: Serum pyruvate in db/db mice; format: in vivo; conditions: vs db-Veh
# Description: Serum pyruvate enzymatic activity. Serum pyruvate levels were measured using the pyruvate assay kit (Sigma-Aldrich, MO, USA) as per manufacturer's protocol. Briefly, 5 μL of the serum samples were added to each well along with the pyruvate assay buffer, probe solution and the enzyme mix, and incubated for 30 min at RT.
# db/db mice [4] = assay: Luminex Magpix IP-10 immunoassay of serum; format: in vivo; conditions: vs db-Veh
# Description: Luminex Magpix IP-10 (C—X—C motif chemokine ligand 10) immunoassay. The serum inflammatory markers were analysed using a mouse cytokine/chemokine antibody-immobilized premixed 32-plex Luminex magnetic beads based 96-Well plate immunoassay kit (Milliplex Map kit—MCYTMAG-70K-PX32, EMD Millipore Corporation, MA, USA) according to the manufacturer's instruction. Briefly, the serum samples were diluted at 1:2 in the assay buffer and measured in duplicates along with the standards and quality controls. The serum samples were incubated overnight at 4° C. with the magnetic beads. The wells were then washed with wash buffer and incubated with the detection antibodies for 1 h at RT, followed by a streptavidin-phycoerythrin incubation for 30 min at RT. After washing, the plate was run on MAGPIX with xPONENT software. The mean fluorescent intensity data was analysed using a five-parameter logistic curve-fitting Multi Analyst software for calculating the cytokine/chemokine concentrations of the samples (n=6 mice per group).
# db/db mice [5] = assay: Fasting blood glucose, ITT, GTT and insulin in db/db mice
# Description: Mice were fasted 6 h, and tail vein blood was used for glucose measurement with ACCU-CHECK blood glucose meter (Roche Diagnostics, Mannheim, Germany) on a weekly basis for 4 weeks.
# Insulin tolerance test. […] After 4 weeks of treatment, both the db-Veh and db-P7C3 treated mice were fasted overnight for GTT assay. GTT was performed by a single dose of intraperitoneal injection of 2 g/kg body weight of D-(+)-glucose (Sigma-Aldrich, MO, USA). Blood samples were obtained by the retro orbital plexus technique. Serum glucose levels were determined prior to glucose administration (0 min) and after 30, 60, 90, and 120 min of glucose injection, using glucose oxidase peroxidase kit (Pointe Scientific Inc., MI. USA) and following manufacturer's instructions. […] The index of the total glucose shift was calculated as the area under the curve (AUC) using trapezium method.
# C57Bl/6J wildtype mice = assay: In vivo myocardial infarction (permanent LAD ligation); conditions: single bolus 10 mg/kg i.p. 30 minutes prior to LAD occlusion; 24 hours; vs vehicle
# Description: […]. All surgical procedures were carried out in aseptic conditions. A left thoracotomy incision was performed at the fourth intercostal space to expose the heart and ligating the LAD coronary artery with an 8-0 polypropylene suture to induce MI as described previously. Myocardial ischemia was confirmed with both the development of pallor myocardium distal to the ligation in the left ventricle and with the ST-segment elevation on the ECG. The skin and muscle incisions were closed with a 6-0 polypropylene suture, and the mice was administered a single dose long-acting analgesic Buprenorphine SR s.c. at 0.5-1.5 mg/kg body weight. The mice were monitored for any signs of pain or discomfort and its feeding and drinking behavior. After 24 hours of occlusion of the LAD coronary artery, the mice were euthanized as per the approved IACUC protocol, and the heart was excised for further processing with 2,3,5-Triphenyltetrazolium chloride (TTC) (Sigma-Aldrich, MO, USA). The whole heart was cut into six parallel short-axis sections and stained with 1% TTC for 90 minutes and fixed overnight in 10% neutral-buffered formalin (Sigma-Aldrich, MO, USA). The TTC stained heart sections were then scanned to determine the total infarct size as the ratio of the infarcted area, i.e., not stained with TTC to the ventricular area of the 4 sections from the apex to the site of occlusion (n=3 mice/group).
# NF-κB = assay: Luciferase assay in TNF-α inflamed C2C12/NF-κB reporter cells; format: cell-based, mouse; conditions: 100 and 500 nM, and 1 μM; 24 hours; 10 ng/mL TNF-α; vs DMSO+TNF-α
# Description: Cell culture and Luciferase assay. The C2C12/NF-κB reporter cells were grown in DMEM supplemented with 10% FBS and 1% penicillin/streptomycin. Puromycin selection of the cells was performed by adding 2 μg/mL to the media, and the C2C12 cells with the NF-κB reporter gene were selected for further culturing. Cells were plated at 40,000 cells per well for the initial seeding density using a 24-well format. To induce inflammation, TNF-α was added at a concentration of 10 ng/mL, and simultaneously, the cells were treated with the vehicle control (DMSO or blank NPs), P7C3 solution, and P7C3 NPs. […] After 24 hours, the luciferase assay was conducted per manufacturer protocol (Promega Luciferase Assay System, USA). Using a Synergy H1 Hybrid Multi-Mode Reader, the luminescence of the cell lysate in the opaque 96-well plate was measured. Protein in the cell lysates was measured using a Pierce™ 660 nm protein assay. The luciferase activity was calculated after normalization with protein concentration.
# [6] = In vitro drug release by membrane dialysis; conditions: PBS pH 7.4, 37° C.
# Description: In vitro Drug Release. Membrane dialysis method was used to investigate the drug release profile of P7C3 from the NPs. A 0.5 mL sample volume of aptamer conjugated, and non-conjugated P7C3 NPs was filled in dialysis cassettes (MWCO 14 KDa) and placed in 50 mL of PBS (pH 7.4) release medium with stirring at 100 rpm and temperature of 37° C. At predetermined time intervals, 1 mL sample volume of release media was removed, and the release study was continued for 7 days.
compound,measurement,setting,value
"OC(CNc1ccccc1)Cn1c2ccc(Br)cc2c2cc(Br)ccc21 (stereo not shown) [P7C3, 3,6-Dibromo-a-[(phenylamino)methyl]-9H-carbazole-9-ethanol]","anti-inflammatory LMs (DHA, HDoHE derivatives, EPA, 5-HEPE)",db/db mice [1],lowered
same,"pro-inflammatory LMs (arachidonic acid, 11-HETE, 15-HETE)",db/db mice [1],significantly attenuated
same,2-arachidonoyl glycerol (2-AG) levels,db/db mice [1]; vs db-Veh,significantly decreased
same,anandamide (AEA) levels,db/db mice [1]; vs db-Veh and WT,significantly higher
same,HDL lipoproteins level,db/db mice [2],significant increase
same,LDL/VLDL lipoproteins level,db/db mice [2],significant decrease
same,overall ischemic injury (infarct),"C57Bl/6J wildtype hearts; WT hearts perfused post-ischemia with P7C3 3 μM, 60 mins reperfusion",22%
same,reduction of overall infarct size compared with reperfusion alone,"C57Bl/6J wildtype hearts; post-ischemic exposure, wildtype hearts",2.5 fold
same,serum pyruvate levels,db/db mice [3],significantly high
same,serum IP-10 levels,db/db mice [4],significant decrease
same,fasting blood glucose levels,"db/db mice [5]; 10 mg/kg/day i.p., 4 weeks, 6 h fasting, vs vehicle",significant decrease
same,circulating blood glucose levels in response to the ITT,"db/db mice [5]; 10 mg/kg/day i.p., 4 weeks, vs db-Veh",significantly reduced
same,HOMA-IR,"db/db mice [5]; 4 weeks, vs db-Veh",decreased
same,circulating insulin levels,"db/db mice [5]; 4 weeks, vs db-Veh",increased
same,β cells function (HOMA-B),"db/db mice [5]; 4 weeks, vs db-Veh",increased
same,GTT percent AUC,"db/db mice [5]; trapezium method, vs db-Veh",significant decrease
same,total infarct size,C57Bl/6J wildtype mice,significant reduction
same,NF-κB activity (luciferase),NF-κB,significant decrease
same,cumulative drug release at day 1 (24 h),[6],100%
